# How the values were obtained:
# [1] = system: intact cells in hippocampus and cortex; experiment: Ex.4 therapeutic HIE rat model: intact cell counting; assay type: in vivo
# Method: Paraformaldehyde-fixed paraffin embedded samples of the removed brains were coronally sectioned at the same level of the hippocampus region in accordance to the Paxinos rat brain atlas (Paxinos and Watson 2007. In: The rat brain in stereotaxic coordinates, 6th edition). Thickness of sections was 5 μm. Hematoxylin-eosin staining was performed. Briefly, sections were deparaffinized in xylene and rehydrated in graded ethanol concentrations before staining. Slides were stained with hematoxylin, rinsed for a few seconds in water, then placed in 1% eosin and washed, dehydrated, and coverslipped.
# Intact cell counting was performed on hematoxylin-eosin-stained sections of the rat pups brains at magnification 400× in 3 fields of the respective brain area. Countings were performed in cortex and hippocampus (regions: dentate gyrus (DG), subgranular zone (SGZ), cornu ammonis (CA1, CA2/CA3)). The sections were analyzed with the aid of a microscope (Olympus BX51, Olympus, Tokyo, Japan), an image scanner (DotSlide Digital Virtual Microscopy, Olympus, Germany) and ImageJ software (NIH, US).
# Intact cells are uninjured. Injured cells are characterized by a pale eosinophilic staining along with non-uniform nuclear densities-shrunken, condensed, or pale and enlarged.
# To study the therapeutic effect of estetrol, newborn rat pups were assigned to one of the following 6 groups at postnatal day 7: sham group (n=29), vehicle group (n=20), 1 mg/kg E4 group (n=16), 5 mg/kg E4 group (n=19), 10 mg/kg day E4 (n=17) and 50 mg/kg day E4 group (n=15). At postnatal day 7 animals were anesthetized with isoflurane (induction, 3.0%; maintenance, 1.5%), and the rat pups from vehicle and E4 groups passed through surgery encompassing left common carotid artery double ligation and cut. After surgery, the pups were returned to their dams and allowed to recover for 1 hour. The pups were then placed in a humidified hypoxic in vivo cabinet (CoyLab). Hypoxia was produced by the inhalation of 11%-8% of oxygen balanced by nitrogen at decreased concentration of oxygen for 20 minutes, followed by inhalation of 8% oxygen and 92% nitrogen at constant concentration for 35 minutes. All the manipulations were performed at 37° C.
# Upon retrieval from the hypoxia chamber the rat pups were injected intraperitoneally either by vehicle (vehicle group) or by E4 (1 mg/kg, 5 mg/kg, 10 mg/kg or 50 mg/kg) in accordance to the group assignment. The animals from the sham group went through similar procedures but proceeded neither left common carotid artery ligation and cut followed by hypoxia nor vehicle or estetrol administration. Rat pups recovered with their dams until being sacrificed at postnatal day 14.
# doublecortin (DCX) = experiment: Ex.8 neuroprotective HIE rat model: doublecortin staining; assay type: in vivo; conditions: 5 mg/kg/day E4, DG
# Method: Newborn rat pups were assigned to one of the following 14 groups from postnatal day 4 (FIG. 23(A)): Sham group (n=12), Vehicle group (n=17), 5 mg/kg/day E4 (n=13), 10 mg/kg/day E4 (n=10), 5 mg/kg/day E4+1.6 mg/kg/day PROG (n=11), 10 mg/kg/day E4+1.6 mg/kg/day PROG (n=11), 5 mg/kg/day E4+16 mg/kg/day PROG (n=11), 10 mg/kg/day E4+16 mg/kg/day PROG (n=11), 5 mg/kg/day E4+136 ng//kg/day E2 (n=11), 10 mg/kg/day E4+136 ng/kg/day E2 (n=11), 5 mg/kg/day E4+1.6 mg/kg/day PROG+136 ng/kg/day (n=13) E2, 10 mg/kg/day E4+1.6 mg/kg/day PROG+136 ng/kg/day E2 (n=16), 5 mg/kg/day E4+16 mg/kg/day PROG+136 ng/kg/day E2 (n=11), 10 mg/kg/day E4+16 mg/kg/day PROG+136 ng/kg/day groups (n=13). Intraperitoneal injections of the pups from study groups were performed from postnatal day 4 to postnatal day 7 inclusively. […]
# The sections were heated in 10 mmol/L citrate buffer (pH 6.0) at 100° C. for 10 minutes. […] Samples were analyzed with the aid of a microscope (Olympus Vanox AHBT3, Olympus), and the ImageJ software 15 (NIH). The percentage of positively stained cells was quantified as a sum of positively stained either DCX or VEGF cells divided by the total number of DAPI positive cells expressed in percentage.
smiles,measurement,setting,value
"C[C@]12CC[C@@H]3c4ccc(O)cc4CC[C@H]3[C@@H]1[C@@H](O)[C@@H](O)[C@@H]2O [E4, 1,3,5(10)-estratrien-3,15α,16α,17β-tetrol]",number of intact cells per visual field,"[1]; 1 mg/kg E4 single ip dose after HI, CA1",51.5±2.5
same,number of intact cells per visual field,"[1]; 1 mg/kg E4 single ip dose after HI, CA2/CA3",33.9±4.306
same,number of intact cells per visual field,"[1]; 1 mg/kg E4 single ip dose after HI, cortex",42.4±4.865
same,number of intact cells per visual field,"[1]; 5 mg/kg E4 single ip dose after HI, CA1",45.3±2.989
same,number of intact cells per visual field,"[1]; 5 mg/kg E4 single ip dose after HI, CA2/CA3",33.8±4.704
same,number of intact cells per visual field,"[1]; 5 mg/kg E4 single ip dose after HI, cortex",57.1±7.012
same,number of intact cells per visual field,"[1]; 10 mg/kg E4 single ip dose after HI, CA1",46.0±3.19
same,number of intact cells per visual field,"[1]; 10 mg/kg E4 single ip dose after HI, CA2/CA3",35.2±3.169
same,number of intact cells per visual field,"[1]; 10 mg/kg E4 single ip dose after HI, cortex",56.9±5.958
same,number of intact cells per visual field,"[1]; 50 mg/kg E4 single ip dose after HI, CA1",46.6±5.336
same,number of intact cells per visual field,"[1]; 50 mg/kg E4 single ip dose after HI, CA2/CA3",30.5±2.527
same,number of intact cells per visual field,"[1]; 50 mg/kg E4 single ip dose after HI, cortex",54.5±3.403
same,percentage of DCX positively stained cells,doublecortin (DCX),60.29±5.66%
